In US20260137662A1, “CD11B AGONISTS FOR TREATMENT OF AUTOIMMUNE DISEASE” (Rush University Medical Center, priority 2022, published 2026):

System: NFkB pathway
Test: Gene expression in RAW 264.7 myeloid cells with NFkB inhibitor
Type: cell-based, murine
Details: presence of NFkB inhibitor; LPS-treated cells, 8 hours
Protocol: FIG. 6A illustrates gene expression of PLAUR in myeloid cells treated with NFkB inhibitor BMS 345541 and then subsequently treated for 8 hours with LA 1(20 uM), LPS (12.5, 25, 50, 100, or 250 ng/ml), or LPS and LA1 co-treatment (L+L).
FIG. 6B illustrates gene expression of NLRP3 in myeloid cells treated with NFkB inhibitor BMS 345541 and then subsequently treated for 8 hours with LA 1(20 uM), LPS (12.5, 25, 50, 100, or 250 ng/ml), or LPS and LA1 co-treatment (L+L).
FIG. 6C illustrates gene expression of and IL-6 in myeloid cells treated with NFkB inhibitor BMS 345541 and then subsequently treated for 8 hours with LA 1(20 uM), LPS (12.5, 25, 50, 100, or 250 ng/ml), or LPS and LA1 co-treatment (L+L).
In order to determine potential molecular mechanisms resulting in uPAR expression, the association between uPAR/suPAR and other inflammatory cytokines and the NFkB pathway were investigated. uPAR expression levels in RAW 264.7 myeloid cells were evaluated in the absence or presence of a known NFkB inhibitor, BMS 345541.

For Cc1ccc2nc(NCCN)c3ncc(C)n3c2c1 [BMS 345541], the “expression levels of IL-6” value was “reduced”, the “expression levels of NLRP3” value was “reduced” and the “relative gene expression of PLAUR (uPAR)” value was “reduced relative gene expression”.
